Assay results: patent US20250368633A1, “AZEPINE FUSED RING COMPOUND AS RIPK1 INHIBITOR AND USE THEREOF” (ARTIVILA BIOPHARMA, priority 2022, published 2025)
pIC50: −log10 of the molar value.

Tests used:
RIPK1 kinase [1] = target: T1, RIPK1 kinase (Homo sapiens, UniProt Q13546); test: In vitro RIPK1 kinase activity assay (ADP-Glo), inhibition by compounds at 1 μM; format: biochemical; details: compound 1 μM; ATP 10 μM; MBP substrate 100 μg/mL; read-out: RIPK1 kinase activity inhibition rate range
T1 construct: purchased Promega VA7593
T1 sequence (Q13546 1-671): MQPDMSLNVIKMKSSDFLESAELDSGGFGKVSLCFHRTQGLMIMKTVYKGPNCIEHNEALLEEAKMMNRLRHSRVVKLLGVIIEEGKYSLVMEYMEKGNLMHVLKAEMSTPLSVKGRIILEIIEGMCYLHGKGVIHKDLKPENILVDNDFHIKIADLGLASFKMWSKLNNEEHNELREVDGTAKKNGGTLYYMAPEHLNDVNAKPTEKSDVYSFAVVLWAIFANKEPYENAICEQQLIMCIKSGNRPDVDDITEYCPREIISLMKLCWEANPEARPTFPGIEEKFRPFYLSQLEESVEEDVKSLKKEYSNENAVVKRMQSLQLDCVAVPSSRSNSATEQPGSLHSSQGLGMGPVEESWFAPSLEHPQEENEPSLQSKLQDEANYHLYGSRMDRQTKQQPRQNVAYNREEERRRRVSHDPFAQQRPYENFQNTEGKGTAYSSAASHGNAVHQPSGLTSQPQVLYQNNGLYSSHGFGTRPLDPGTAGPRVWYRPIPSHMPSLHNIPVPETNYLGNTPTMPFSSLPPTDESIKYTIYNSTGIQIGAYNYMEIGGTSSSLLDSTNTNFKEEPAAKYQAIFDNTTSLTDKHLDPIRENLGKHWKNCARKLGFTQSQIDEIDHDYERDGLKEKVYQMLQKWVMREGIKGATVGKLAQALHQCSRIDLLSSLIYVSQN
In short: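 Read by ADP-Glo chemiluminescence as percent inhibition: RIPK1 kinase, 15-min room-temperature compound preincubation, then 1-h reaction with MBP (100 μg/mL final) and ATP (10 μM final). Enzyme level was set by titration.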

RIPK1 kinase [2] = target: T1, RIPK1 kinase; test: In vitro RIPK1 kinase activity IC50 assay (ADP-Glo); format: biochemical; details: ATP 10 μM; MBP substrate 100 μg/mL; 8 concentration points; read-out: IC50 range of compounds for RIPK1 kinase activity
Description: RIPK1 kinase activity was assayed using the ADP-Glo assay and RIPK1 kinase reaction system (Promega, catalog number: VA7593). The RIPK1 kinase activity assay was performed according to the Promega kit manual.
The experimental method was briefly described as below. The concentration of RIPK1 kinase in the RIPK1 kinase reaction system was determined by kinase titration and S/B10. The compound was diluted with 1× kinase buffer D (1% DMSO), 1 μL of 1 mM compound DMSO stock solution was added to 19 μL 1× kinase buffer D, and the compound was serially diluted with 1× kinase buffer D at a ratio of 1:5, for a total of 8 concentration points, and a control with the same DMSO volume was set. RIPK1 kinase was diluted with 1× kinase buffer D. 2.5×ATP/substrate was diluted with 1× kinase buffer D. The final concentration of ATP in the kinase reaction system was 10 μM. The final concentration of MBP substrate was 100 μg/mL. 1 μL of diluted compound and 2 μL of diluted RIPK1 kinase were mixed, incubated at room temperature for 15 minutes, 2 μL of 2.5×ATP/substrate was added, mixed, and incubated at room temperature for 1 hour. 5 μL ADP-Glo reagent was added to each well and incubated at room temperature for 1 hour. 10 μL ADP detection reagent was added to each well and incubated at room temperature for another 0.5-1 hour. The chemiluminescent signal was read with a microplate reader and the kinase activity inhibition rate was calculated. IC50 was obtained by fitting the nonlinear regression curve log [inhibitor] vs. response-variable slope (four parameters) in GraphPad Prism.

U937 cells = test: Inhibition rate of compound (1 μM) on necroptosis of U937 cells (TSZ-induced, CellTiter-Glo); format: cell-based; details: TSZ (hTNF-α, SM-164, Z-VAD-FMK) 20 hours
In short: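 Percent inhibition comes from ATP luminescence (CellTiter-Glo), referenced to wells without TSZ and wells with TSZ alone. The compound was added to U937 cells 15 min ahead of a TNF-α/SM-164/Z-VAD-FMK mix, followed by 20 h culture at 37° C, 5% CO2.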

Structure (SMILES) | inhibition at 1 µM (RIPK1 kinase [1]) [%] | pIC50 (RIPK1 kinase [2]) | Inhibition rate range of compounds (1 μM) on U937 cell necroptosis (U937 cells)
CN1C(=O)[C@@H](NC(=O)C(=O)NCCc2ccccc2)COc2ccc(C#CCCO)cc21 [Example 31, (S)—N^1-(7-(4-hydroxybut-1-yn-1-yl)-5-methyl-4-oxo-2,3,4,5-tetrahydrobenzo[b][1,4]oxazepin-3-yl)-N^2-phenethyloxalamide] | ≥ 75 | > 7.00 | A (A: ≥90%)
CN1C(=O)[C@@H](NC(=O)C(=O)NCCc2ccccc2)COc2ccc(C#CC(C)(C)O)cc21 [Example 29, (S)—N^1-(7-(3-hydroxy-3-methylbut-1-yn-1-yl)-5-methyl-4-oxo-2,3,4,5-tetrahydrobenzo[b][1,4]oxazepin-3-yl)-N^2-phenethyloxalamide] | ≥ 75 | > 7.00 | A (A: ≥90%)
CN1C(=O)[C@@H](NC(=O)C(=O)NCCc2ccccc2)COc2ccc(C#CCN3CCNC(=O)C3)cc21 [Example 85, (S)—N^1-(5-methyl-4-oxo-7-(3-(3-oxopiperazin-1-yl)prop-1-yn-1-yl)-2,3,4,5-tetrahydrobenzo[b][1, 4]oxazepin-3-yl)-N^2-phenethyloxalamide] | ≥ 75 | > 7.00 | B (B: 50-89%)
COCC#Cc1ccc2c(c1)N(C)C(=O)[C@@H](NC(=O)C(=O)NCCc1ccccc1)CO2 [Example 52, (S)—N^1-(7-(3-methoxyprop-1-yn-1-yl)-5-methyl-4-oxo-2,3,4,5-tetrahydrobenzo[b][1,4]oxazepin-3-yl)-N^2-phenethyloxalamide] | ≥ 75 | > 7.00 | A (A: ≥90%)
CC(Cc1ccccc1)NC(=O)C(=O)N[C@H]1COc2ccc(C#CCCO)cc2N(C)C1=O (mixture of isomers) [Example 37, N^1-((S)-7-(4-hydroxybut-1-yn-1-yl)-5-methyl-4-oxo-2,3,4,5-tetrahydrobenzo[b][1,4]oxazepin-3-yl)-N^2-(1-phenylpropan-2-yl)oxalamide] | 50 to 74 | > 7.00 | A (A: ≥90%)
CN1C(=O)[C@@H](NC(=O)C(=O)NCCc2ccccc2)COc2ccc(C#CC3CCN(CC#N)CC3)cc21 [Example 74, (S)—N^1-(7-((1-(cyanomethyl)piperidin-4-yl)ethynyl)-5-methyl-4-oxo-2,3,4,5-tetrahydrobenzo[b][1, 4]oxazepin-3-yl)-N^2-phenethyloxalamide] | 50 to 74 | > 7.00 | A (A: ≥90%)
CN1C(=O)[C@@H](NC(=O)C(=O)NCCc2cccc(F)c2)COc2ccc(C#CC(C)(C)O)cc21 [Example 42, (S)—N^1-(3-fluorophenethyl)-N^2-(7-(3-hydroxy-3-methylbut-1-yn-1-yl)-5-methyl-4-oxo-2,3,4,5-tetrahydrobenzo[b][1,4]oxazepin-3-yl)oxalamide] | ≥ 75 | > 7.00 | A (A: ≥90%)
CN1C(=O)[C@@H](NC(=O)C(=O)NCCc2ccccc2)COc2ccc(C#CC3CCOCC3)cc21 [Example 21, (S)—N^1-(5-methyl-4-oxo-7-((tetrahydro-2H-pyran-4-yl)ethynyl)-2,3,4,5-tetrahydrobenzo[b][1,4]oxazepin-3-yl)-N^2-phenethyloxalamide] | ≥ 75 | > 7.00 | A (A: ≥90%)
CN1C(=O)[C@@H](NC(=O)C(=O)NCCc2ccccc2)COc2ccc(C#Cc3ccsc3)cc21 [Example 17, (S)—N^1-(5-methyl-4-oxo-7-(thiophen-3-ylethynyl)-2,3,4,5-tetrahydrobenzo[b][1,4]oxazepin-3-yl)-N^2-phenethyloxalamide] | ≥ 75 | > 7.00 | A (A: ≥90%)

Further lines, with some results ahead:

inhibition at 1 µM (RIPK1 kinase [1]) [%] | pIC50 (RIPK1 kinase [2]) | Structure (SMILES) | Inhibition rate range of compounds (1 μM) on U937 cell necroptosis (U937 cells)
50 to 74 | > 7.00 | CN1C(=O)[C@@H](NC(=O)C(=O)NCCc2cccc(F)c2)COc2ccc(C#CCN3CCNC(=O)C3)cc21 [Example 123, (S)—N^1-(3-fluorophenethyl)-N^2-(5-methyl-4-oxo-7-(3-(3-oxopiperazin-1-yl)prop-1-yn-1-yl)-2,3,4,5-tetrahydrobenzo[b][1,4]oxazepin-3-yl)oxalamide] | B (B: 50-89%)
≥ 75 | > 7.00 | CCOC(=O)CCC#Cc1ccc2c(c1)N(C)C(=O)[C@@H](NC(=O)C(=O)NCCc1ccccc1)CO2 [Example 94, ethyl (S)-5-(5-methyl-4-oxo-3-(2-oxo-2-(phenethylamino)acetamido)-2,3,4,5-tetrahydrobenzo[b][1,4]oxazepin-7-yl) pent-4-ynoate] | B (B: 50-89%)
≥ 75 | > 7.00 | CN1C(=O)[C@@H](NC(=O)C(=O)NCCc2cccc(F)c2)COc2ccc(C#CCN3CCOCC3)cc21 [Example 120, (S)—N^1-(3-fluorophenethyl)-N^2-(5-methyl-7-(3-morpholinoprop-1-yn-1-yl)-4-oxo-2,3,4,5-tetrahydrobenzo[b][1,4]oxazepin-3-yl)oxalamide] | A (A: ≥90%)
50 to 74 | > 7.00 | CN1C(=O)[C@@H](NC(=O)C(=O)NCCc2ccccc2)COc2ccc(C#CC3(O)CN(C=O)C3)cc21 [Example 92, (S)—N^1-(7-((1-formyl-3-hydroxyazetidin-3-yl)ethynyl)-5-methyl-4-oxo-2,3,4,5-tetrahydrobenzo[b][1,4]oxazepin-3-yl)-N^2-phenethyloxalamide] | A (A: ≥90%)
≥ 75 | > 7.00 | C[C@@H](NC(=O)C(=O)N[C@H]1COc2ccc(C#CCN3CCOCC3)cc2N(C)C1=O)c1ccccc1 [Example 140, N^1-((S)-5-methyl-7-(3-morpholinoprop-1-yn-1-yl)-4-oxo-2,3,4,5-tetrahydrobenzo[b][1,4]oxazepin-3-yl)-N^2-((R)-1-phenylethyl)oxalamide] | A (A: ≥90%)
≥ 75 | > 7.00 | C[C@@H](NC(=O)C(=O)N[C@H]1COc2ccc(C#CCN3CCC(=O)CC3)cc2N(C)C1=O)c1ccccc1 [Example 139, N^1-((S)-5-methyl-4-oxo-7-(3-(4-oxopiperidin-1-yl)prop-1-yn-1-yl)-2,3,4,5-tetrahydrobenzo[b][1, 4]oxazepin-3-yl)-N^2-((R)-1-phenylethyl)oxalamide] | B (B: 50-89%)
50 to 74 | > 7.00 | C[C@@H](NC(=O)C(=O)N[C@H]1COc2ccc(C#CC3(O)COC3)cc2N(C)C1=O)c1ccccc1 [Example 132, N^1-((S)-7-((3-hydroxyoxetan-3-yl)ethynyl)-5-methyl-4-oxo-2,3,4,5-tetrahydrobenzo[b][1,4]oxazepin-3-yl)-N^2-((R)-1-phenylethyl)oxalamide] | A (A: ≥90%)
≥ 75 | > 7.00 | C[C@@H](NC(=O)C(=O)N[C@H]1COc2ccc(C#CCN3CCC(O)C3)cc2N(C)C1=O)c1ccccc1 (mixture of isomers) [Example 126, N^1-((3S)-7-(3-(3-hydroxypyrrolidin-1-yl)prop-1-yn-1-yl)-5-methyl-4-oxo-2,3,4,5-tetrahydrobenzo[b][1,4]oxazepin-3-yl)-N^2-((R)-1-phenylethyl)oxalamide] | A (A: ≥90%)
